Active and inactive are the calls of the source. The rule behind the calls is not given here. Starred links: 1 amine or outer side, 2 acyl side, 3 side chain; linkers in the order of their positions; H or OH if unused. Positions of bridges follow the written chain, without caps; N, C: chain ends. Non-standard residues stand in square brackets, D forms with d. Residues, ends and D or L forms follow the SMILES beside them. ξ: configuration not given here. mXylylene = c1cc(C[*:1])cc(C[*:2])c1; ξhCys = NC(CCS)C(=O)O
Legend:
[1] = tested on: Human immunodeficiency virus 1; assay: Antiviral activity against X4 tropic HIV-1 subtype-B 3B infected in human MT2 cells or CEMx174 5.25 M7 cells assessed as reduction in p24 Gag protein production measured at 4 days post-infection by ELISA; format: functional, cell-based, HIV-1 group M; settings: Human immunodeficiency virus 1, 3B, 96 h
[2] = tested on: Human immunodeficiency virus 1; assay: Antiviral activity against R5 tropic HIV-1 subtype-B Bal infected in human MT2 cells or CEMx174 5.25 M7 cells assessed as reduction in p24 Gag protein production measured at 4 days post-infection by ELISA; format: functional, cell-based, HIV-1 group M; settings: Human immunodeficiency virus 1, Bal, 96 h
[3] = biological target: Envelope glycoprotein gp160 (Human immunodeficiency virus 1) (UniProt Q6QLK5); assay: Binding affinity to HIV1 GP41 using GP41 NHR derived N36 peptide assessed as formation of secondary structure at 10 uM incubated for 30 mins by CD spectroscopy
[4] = biological target: Envelope glycoprotein gp160 (Human immunodeficiency virus 1) (UniProt Q6QLK5); assay: Binding affinity to HIV1 GP41 using GP41 NHR derived N36 peptide assessed as melting temperature at 10 uM incubated for 30 mins by CD spectroscopy
[5] = biological target: Envelope glycoprotein gp160 (Human immunodeficiency virus 1) (UniProt Q6QLK5); assay: Binding affinity to HIV1 GP41 using GP41 NHR derived N36 peptide assessed as formation of oligomeric complex at 100 uM incubated for 30 mins by Coomassie blue R250 staining based Native-PAGE analysis
[6] = biological target: Envelope glycoprotein gp160 (Human immunodeficiency virus 1) (UniProt Q6QLK5); assay: Binding affinity to HIV1 GP41 using GP41 NHR derived N36 peptide assessed as molecular weight at 150 uM incubated for 30 mins by sedimentation Velocity analysis
[7] = biological target: Envelope glycoprotein gp160 (Human immunodeficiency virus 1) (UniProt Q6QLK5); assay: Binding affinity to HIV1 GP41 using GP41 NHR derived N36 peptide at 500 uM incubated for 30 mins by size exclusion HPLC analysis
[8] = Cytotoxicity against human TZM-bl cells assessed as reduction in viability after 2 days by XTT assay; format: cell-based

Chain of Envelope glycoprotein gp160 (Human immunodeficiency virus 1) (Q6QLK5 1-814): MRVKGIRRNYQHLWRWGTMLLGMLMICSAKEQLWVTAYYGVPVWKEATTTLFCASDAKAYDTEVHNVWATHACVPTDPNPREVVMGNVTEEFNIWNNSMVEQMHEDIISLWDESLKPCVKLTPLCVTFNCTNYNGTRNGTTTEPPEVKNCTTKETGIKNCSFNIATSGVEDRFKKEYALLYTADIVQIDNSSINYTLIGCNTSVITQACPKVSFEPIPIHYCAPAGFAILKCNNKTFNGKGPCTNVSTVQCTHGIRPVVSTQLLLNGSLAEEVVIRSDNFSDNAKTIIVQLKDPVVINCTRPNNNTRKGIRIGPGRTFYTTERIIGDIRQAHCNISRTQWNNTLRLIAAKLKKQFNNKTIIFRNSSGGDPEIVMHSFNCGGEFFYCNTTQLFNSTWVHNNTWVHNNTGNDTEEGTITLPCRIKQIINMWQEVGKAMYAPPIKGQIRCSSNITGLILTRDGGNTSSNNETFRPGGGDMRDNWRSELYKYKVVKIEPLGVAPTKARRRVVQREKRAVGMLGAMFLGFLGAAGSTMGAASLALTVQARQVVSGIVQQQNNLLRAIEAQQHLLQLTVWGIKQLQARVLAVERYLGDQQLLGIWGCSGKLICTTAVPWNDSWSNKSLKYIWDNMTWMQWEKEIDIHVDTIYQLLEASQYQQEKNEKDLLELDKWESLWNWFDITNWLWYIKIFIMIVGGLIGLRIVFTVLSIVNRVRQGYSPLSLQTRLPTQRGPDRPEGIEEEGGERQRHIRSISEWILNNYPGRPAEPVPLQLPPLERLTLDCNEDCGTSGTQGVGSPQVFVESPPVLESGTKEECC

Compound	EC50 [1] [nM]	EC50 [2] [nM]	Activity [3]	Tm [4] [°C]	Activity [5]	Activity [6] [kDa]	Activity [7]	CC50 at 48 h [8] [nM]
CC[C@H](C)[C@H](NC(C)=O)C(=O)N[C@@H](CCC(=O)O)C(=O)N[C@@H](C)C(=O)N[C@@H](CC(C)C)C(=O)N[C@H](C(=O)NC1CCSCc2cccc(c2)CSCCC(C(=O)N[C@@H](CCC(N)=O)C(=O)N[C@@H](CCC(N)=O)C(=O)N[C@@H](CCC(=O)O)C(=O)N[C@@H](CCCCN)C(=O)N[C@@H](CC(N)=O)C(=O)N[C@@H](CCC(=O)O)C(=O)N[C@@H](C)C(=O)N[C@@H](C)C(=O)N[C@@H](CC(C)C)C(=O)N[C@@H](CCCNC(=N)N)C(=O)N[C@@H](CCC(=O)O)C(=O)N[C@@H](CC(C)C)C(N)=O)NC(=O)[C@H](CCC(N)=O)NC(=O)[C@H](C)NC(=O)[C@H](C)NC1=O)[C@@H](C)CC (stereo partly specified) (Ac-IEALI[ξhCys]AAQ[ξhCys]QQEKNEAALREL-NH2; linker 6-10 via mXylylene)	44.4	69.1	Active	52.4	Active	8.4	Active	
CC[C@H](C)[C@H](NC(C)=O)C(=O)N[C@@H](CCC(=O)O)C(=O)N[C@@H](C)C(=O)N[C@@H](CC(C)C)C(=O)N[C@H](C(=O)NC1CCSCc2cccc(c2)CSCCC(C(=O)N[C@@H](CCC(N)=O)C(=O)N[C@@H](CCC(N)=O)C(=O)N[C@@H](CCCNC(=N)N)C(=O)N[C@@H](CCCCN)C(=O)N[C@@H](CC(N)=O)C(=O)N[C@@H](CCC(=O)O)C(=O)N[C@@H](CCC(=O)O)C(=O)N[C@@H](C)C(=O)N[C@@H](CC(C)C)C(=O)N[C@@H](CCCNC(=N)N)C(=O)N[C@@H](CCC(=O)O)C(=O)N[C@@H](CC(C)C)C(N)=O)NC(=O)[C@H](CCC(N)=O)NC(=O)[C@H](C)NC(=O)[C@H](C)NC1=O)[C@@H](C)CC (stereo partly specified) (Ac-IEALI[ξhCys]AAQ[ξhCys]QQRKNEEALREL-NH2; linker 6-10 via mXylylene)	18.4	27.7	Active	56.9	Active	18.7	Active	> 800000
Ac-IEALIRAAQEQQEKNEAALREL-NH2				48.2				

From ChEMBL document CHEMBL4334495, “Design and Biological Evaluation of m-Xylene Thioether-Stapled Short Helical Peptides Targeting the HIV-1 gp41 Hexameric Coiled-Coil Fusion Complex” (J Med Chem, 2019)
